Among the data in patent publication US20120270237A9, “METHODS FOR THE IDENTIFICATION OF KINASE INTERACTING MOLECULES AND FOR THE PURIFICATION OF KINASE PROTEINS” (Cellzone AG, priority 2009, published 2012) are inhibition values, retold here.

The assay has as its target T1, PKD2 (Homo sapiens, UniProt Q9BZL6).
T1 sequence (Q9BZL6 1-878): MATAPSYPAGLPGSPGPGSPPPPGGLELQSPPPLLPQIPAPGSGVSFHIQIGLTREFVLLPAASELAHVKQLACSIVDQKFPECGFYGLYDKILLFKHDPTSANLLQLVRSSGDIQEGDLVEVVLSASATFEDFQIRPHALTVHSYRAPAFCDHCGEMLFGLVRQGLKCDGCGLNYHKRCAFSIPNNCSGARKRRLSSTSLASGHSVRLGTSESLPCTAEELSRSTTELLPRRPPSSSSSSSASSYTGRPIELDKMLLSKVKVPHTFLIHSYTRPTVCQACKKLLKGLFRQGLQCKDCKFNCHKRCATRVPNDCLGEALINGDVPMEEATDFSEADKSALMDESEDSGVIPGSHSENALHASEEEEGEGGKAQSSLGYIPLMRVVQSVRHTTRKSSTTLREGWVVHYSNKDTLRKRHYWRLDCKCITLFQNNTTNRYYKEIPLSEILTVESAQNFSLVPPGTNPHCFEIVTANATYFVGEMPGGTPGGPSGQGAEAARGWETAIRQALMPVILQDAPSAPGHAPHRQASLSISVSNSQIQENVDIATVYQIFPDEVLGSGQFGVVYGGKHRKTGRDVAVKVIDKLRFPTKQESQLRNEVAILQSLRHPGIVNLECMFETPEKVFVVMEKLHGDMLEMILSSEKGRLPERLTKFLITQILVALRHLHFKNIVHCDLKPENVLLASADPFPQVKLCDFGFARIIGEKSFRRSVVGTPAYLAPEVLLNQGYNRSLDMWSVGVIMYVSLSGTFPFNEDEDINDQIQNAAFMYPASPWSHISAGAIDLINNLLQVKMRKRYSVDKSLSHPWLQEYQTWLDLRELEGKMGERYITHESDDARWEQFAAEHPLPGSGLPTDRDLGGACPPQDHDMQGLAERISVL
Put plainly: Kinobeads competition binding, HL60 cell lysate. Details: endogenous in cells; host or cells: HL60. To be noted: 10 μM free compound. The protocol: To one aliquot of cell lysate 10 μM of the free compound (FIG. 3, CZC31326) was added and allowed to bind to proteins in the lysate. Then the affinity matrix with the immobilized compound (Example 1) was added to capture proteins that were not interacting with the previously added free compound. Beads were separated from the lysate and bead bound proteins were eluted in SDS sample buffer and subsequently separated by SDS-Polyacrylamide gel electrophoresis (FIG. 4). Suitable gel bands were cut out and subjected to in-gel proteolytic digestion with trypsin. The second lysate aliquot was processed identically, however no free compound was added (DMSO solvent control). Peptides originating from samples 1 and 2 were labeled with iTRAQ reagents (iTRAQ 114 and iTRAQ 117) and the combined samples were analyzed with a nano-flow liquid chromatography system coupled online to a tandem mass spectrometer (LC-MS/MS) experiment followed by iTRAQ reporter ion quantification in the MS/MS spectra (Ross et al., 2004. Mol. Cell. Proteomics 3(12):1154-1169). Further experimental protocols can be found in WO2006/134056 and a previous publication (Bantscheff et al., 2007. Nature Biotechnology 25, 1035-1044). Sepharose-beads with the immobilized compound (100 μl beads per pull-down experiment) were equilibrated in lysis buffer and incubated with a cell lysate sample containing 50 mg of protein on an end-over-end shaker (Roto Shake Genie, Scientific Industries Inc.) for 2 hours at 4° C. Beads were collected, transferred to Mobicol-columns (MoBiTech 10055) and washed with 10 ml lysis buffer containing 0.4% NP40 detergent, followed by 5 ml lysis buffer containing 0.2% detergent. To elute bound proteins, 60 μl 2×SDS sample buffer was added to the column. The column was incubated for 30 minutes at 50° C. and the eluate was transferred to a siliconized microfuge tube by centrifugation. Proteins were then alkylated with 108 mM iodoacetamid. Proteins were then separated by SDS-Polyacrylamide electrophoresis (SDS-PAGE). The peptide extracts of samples treated with 10 μM of free compound (CZC31326) and the solvent control (0.5% DMSO) were treated with different variants of the isobaric tagging reagent (iTRAQ Reagents Multiplex Kit, part number 4352135, Applied Biosystems, Foster City, Calif., USA). The iTRAQ reagents are a set of multiplexed, amine-specific, stable isotope reagents that can label peptides on amino groups in up to four different biological samples enabling simultaneous identification and quantitation of peptides. The iTRAQ reagents were used according to instructions provided by the manufacturer. The samples were resuspended in 10 μl 50 mM TEAB solution, pH 8.5 and 10 μl ethanol were added. The iTRAQ reagent was dissolved in 120 μl ethanol and 10 μl of reagent solution were added to the sample. The labeling reaction was performed at room temperature for one hour on a horizontal shaker and stopped by adding 5 μl of 100 mM TEAB and 100 mM glycine in water. The two labeled sampled were then combined, dried in a vacuum centrifuge and resuspended in 10 μl of 0.1% formic acid in water. Relative protein quantitation was performed using peak areas of iTRAQ reporter ion signals essentially as described in an earlier publication (Bantscheff et al., 2007. Nature Biotechnology 25, 1035-1044).

As to `CS(=O)(=O)Nc1ccccc1Nc1nc(Nc2cccc(OCCN)c2)ncc1Cl` [CZC31326, N-(2-(2-(3-(2-aminoethoxy)phenylamino)-5-chloropyrimidin-4-ylamino)phenyl)methanesulfonamide], the inhibition (as a rule, the relative decrease from the control value, in per cent) at 10 µM amounted to 97.9%.
